Test results from EP4796551A1, “ZWITTERIONIC PHOSPHOLIPID COMPOUND AND LIPID NANOPARTICLE CONTAINING THE SAME” (National University Corporation Hokkaido University, priority 2023, dated 2025).

Key:
[1] = Lipid polymorphism by 31P NMR method (mixtures with POPC); type: physicochemical; conditions: lipid:POPC molar ratio 1:1, 20 mM HEPES pH 7.4, room temperature
Method: In order to examine the interaction between DOPE-Cx and PC and characteristics thereof, lipid polymorphism of the lipid suspension was evaluated by a ^31P NMR method. Since the rotational motion of lipid molecules in a lamellar phase which is a planar structure and a (inverted) hexagonal phase which is a tubular structure receives different restrictions respectively, a specific ^31P NMR spectrum is provided by chemical shift anisotropy. Specifically, the lamellar phase produces a broad […] peak, and the (inverted) hexagonal phase produces a broad […] peak.
First, DOPE or DOPE-C8 and 1-palmitoyl-2-oleoyl-sn-glycero-3-phosphocholine (POPC) were mixed at a predetermined ratio in 400 µL of chloroform (total lipid 16 µmol), and the solvent was removed by a rotary evaporator to form a lipid membrane. The lipid membrane was hydrated with 500 µL of 20 mM HEPES buffer (pH 7.4, 130 mM NaCl) at 60°C. Then, the lipid dispersion was transferred to an NMR tube, and a ^31P NMR spectrum at room temperature was measured by a conventional method using an ECX 400P spectrometer (JEOL Ltd.).

[2] = Particle size, PDI and ζ-potential of mRNA-LNP (Zetasizer Nano ZS); type: physicochemical; conditions: mRNA-LNP formulation phospholipid:CL4F6:Chol:PEG-DMG 10:50:40:1.0, Fluc mRNA
Method: (§1) Ethanol solutions containing each phospholipid, CL4F6, Chol, and PEG2000-dimirystoylglycerol (PEG-DMG) at the molar ratio of 10:50:40:1.0 were prepared at the total lipid concentration of 16 mM. For fluorescent labeling of LNPs, 0.5 mol% of DiI or DiR was added to the above solutions. The firefly luciferase (Fluc)-encoding mRNA (TriLink) was dissolved in a 25 mM acetate buffer (pH 4.0). LNPs were prepared by mixing the lipids in ethanol and RNA in an aqueous solution using an iLiNP device at a total flow rate (TFR) of 0.5 mL/min and a flow rate ratio (FRR) (RNA flow rate/lipid flow rate) of 3. The nitrogen to phosphate (N/P) ratio was adjusted to 6. Syringe pumps (Harvard apparatus) were used to control the flow rate of the solutions. The resulting LNP solutions were then dialyzed for 2 hours or more at 4 °C against phosphate buffered saline without Ca^2+ and Mg^2+ (PBS(-)) using Spectra/Por 4 dialysis membranes (molecular weight cut-off 12,000-14,000 Da, Spectrum Laboratories). The LNP solutions were concentrated by ultrafiltration using an Amicon Ultra-15 unit (MWCO 100 kDa, Millipore) as needed.
(§2) The ζ-average particle size, polydispersity index (PDI), and ζ-potential of the LNPs were measured by means of a Zetasizer Nano ZS ZEN3600 instrument (Malvern Instruments). The encapsulation efficiency and total concentration of mRNA were measured by a Ribogreen assay according to a conventional method.

[3] = Ribogreen assay, mRNA encapsulation efficiency of LNP; type: physicochemical; conditions: mRNA-LNP formulation phospholipid:CL4F6:Chol:PEG-DMG 10:50:40:1.0, Fluc mRNA
Method: as §1, §2

[4] = tested on: liver; assay: mRNA introduction ability: luciferase activity in the liver after intravenous Fluc mRNA-LNP; type: in vivo, BALB/c mice; conditions: Figs. 3 and 4, LNP containing the phospholipid, 0.01 mg RNA/kg, livers collected 6 hours later
Method: as §1, with “The resulting LNP solutions were then dialyzed for 2 hours or more at 4 °C against phosphate buffered saline without Ca^2+ and Mg^2+ (PBS(-)) using Spectra/Por 4 dialysis membranes (molecular weight cut-off 12,000-14,000 Da, Spectrum Laboratories). The LNP solutions were concentrated by ultrafiltration using an Amicon Ultra-15 unit (MWCO 100 kDa, Millipore) as needed.” left out
The mRNA-LNP formulations prepared in the above item (2) were intravenously administered to BALB/c mice at a dose of 0.01 mg RNA/kg, and the livers were collected by a conventional method 6 hours later. […] The supernatant was collected, and […] was measured by a luminometer (Luminescencer-PSN, ATTO Corporation) using Luciferase Assay System (Promega). The protein concentration was determined using a BCA protein assay kit (Pierce). Fluc activity was expressed as relative light units (RLU) per 1 mg of protein.

Row | Compound | lipid phase by 31P NMR spectrum [1] | Number average particle size (nm) ([2]; Table 2) | PDI ([2]; Table 2) | ζ-average particle size (nm) ([2]; Table 2) | ζ-potential (mV) ([2]; Table 2) | mRNA encapsulation rate % ([3]; Table 2) | Number average particle size (nm) ([2]; Table 1) | PDI ([2]; Table 1) | ζ-potential (mV) ([2]; Table 1) | ζ-average particle size (nm) ([2]; Table 1, N/P 6) | mRNA encapsulation rate % ([3]; Table 1) | luciferase activity in the liver [4]
1 | CCCCCCCC/C=C\CCCCCCCC(=O)OC[C@H](COP(=O)(O)OCCNCCC(=O)OCC(CCCC)CCCCCC)OC(=O)CCCCCCC/C=C\CCCCCCCC (stereo partly drawn) [DOPE-C8_β4, (R)-2,3-bis(oleoyloxy)propyl (2-((3-((2-butyloctyl)oxy)-3-oxopropyl)ammonio)ethyl) phosphate] | the ratio derived from the inverted hexagonal phase increased | 71 nm | 0.21 | 112 nm | -5.8 mV | 96.3% |  |  |  |  |  | 
2 | CCCCCCCC/C=C\CCCCCCCCOC(=O)CCNCCOP(=O)(O)OC[C@@H](COC(=O)CCCCCCC/C=C\CCCCCCCC)OC(=O)CCCCCCC/C=C\CCCCCCCC [DOPE-C18:1, (R)-2,3-bis(oleoyloxy)propyl (2-((3-(((Z)-octadeca-9-ene-1-yl)oxy)-3-oxopropyl)ammonio)ethyl) phosphate] | the ratio derived from the inverted hexagonal phase increased |  |  |  |  |  | 56 nm | 0.18 | -2.9 mV | 81 nm | 93.9% | 
3 | CCCCCCCC/C=C\CCCCCCCC(=O)OC[C@H](COP(=O)(O)OCCNCCC(=O)OCCCCCCCCCC)OC(=O)CCCCCCC/C=C\CCCCCCCC [DOPE-C10, (R)-2,3-bis(oleoyloxy)propyl (2-((3-(decyloxy)-3-oxopropyl)ammonio)ethyl) phosphate] | the ratio derived from the inverted hexagonal phase increased |  |  |  |  |  | 48 nm | 0.18 | -7.0 mV | 82 nm | 93.1% | 
4 | CCCCCCCC/C=C\CCCCCCCC(=O)OC[C@H](COP(=O)(O)OCCNCCC(=O)OCC(CC)CCCC)OC(=O)CCCCCCC/C=C\CCCCCCCC (stereo partly drawn) [DOPE-C6_β2, (R)-2,3-bis(oleoyloxy)propyl (2-((3-((2-ethylhexyl)oxy)-3-oxopropyl)ammonio)ethyl) phosphate] |  | 73 nm | 0.07 | 94 nm | -5.0 mV | 95.7% |  |  |  |  |  | highest activity
5 | CCCCCCCC/C=C\CCCCCCCC(=O)OC[C@H](COP(=O)(O)OCCNCCC(=O)OCC(CCC)CCCCC)OC(=O)CCCCCCC/C=C\CCCCCCCC (stereo partly drawn) [DOPE-C7_β3, (R)-2,3-bis(oleoyloxy)propyl (2-((3-oxo-3-((2-propylheptyl)oxy)propyl)ammonio)ethyl) phosphate] | the ratio derived from the inverted hexagonal phase increased | 61 nm | 0.08 | 79 nm | -9.6 mV | 96.0% |  |  |  |  |  | 
6 | CCCCCCCC/C=C\CCCCCCCC(=O)OC[C@H](COP(=O)(O)OCCNCCC(=O)OCCCCCCCCCCCC)OC(=O)CCCCCCC/C=C\CCCCCCCC [DOPE-C12, (R)-2,3-bis(oleoyloxy)propyl (2-((3-(dodecyloxy)-3-oxopropyl)ammonio)ethyl) phosphate] | the ratio derived from the inverted hexagonal phase increased |  |  |  |  |  | 59 nm | 0.25 | -6.3 mV | 100 nm | 94.2% | 
